Patent publication US20230416248A1, “COMPOUNDS AND USES THEREOF” (Foghorn Therapeutics Inc., priority 2020, published 2023)
Like-named read-outs stand apart in the source and are kept apart here.

What was measured:
BRM = target: T1, BRM (Homo sapiens, UniProt P51531); assay: ATPase catalytic activity of BRM, ADP-Glo in vitro biochemical assay; settings: for IC50: 30 nM BRM, 400 μM ATP; for Ratio* (BRG1 IC50 (μM) divided by BRM IC50 (μM)): selectivity ratio BRG1 IC50 / BRM IC50
T1 construct: made in house; host or cells: High Five insect cells
Procedure, shortened: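 Recombinant BRM (30 nM) hydrolysed 400 μM ATP with 20 nM salmon sperm DNA in pH 8 Tris buffer containing 20 mM MgCl2, 50 mM NaCl, 0.1% Tween-20 and 1 mM DTT, 1 h at room temperature. ADP formed was quantified by ADP-Glo luminescence.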

BRG-1 = target: T2, BRG-1 (Homo sapiens, UniProt P51532); assay: ATPase catalytic activity of BRG-1, ADP-Glo in vitro biochemical assay; settings: 30 nM BRG-1, 400 μM ATP, read-out: BRG1 IC50
T2 construct: made in house; host or cells: High Five insect cells
Procedure, shortened: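 Signal reflects ADP produced by the enzyme, quantified as luminescence after unused ATP is cleared and ADP is reconverted to ATP for the luciferase reaction; both steps run at room temperature, 40 and 60 min respectively.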

[1] = ATPase catalytic activity, ADP-Glo

T2 sequence (P51532 whole entry): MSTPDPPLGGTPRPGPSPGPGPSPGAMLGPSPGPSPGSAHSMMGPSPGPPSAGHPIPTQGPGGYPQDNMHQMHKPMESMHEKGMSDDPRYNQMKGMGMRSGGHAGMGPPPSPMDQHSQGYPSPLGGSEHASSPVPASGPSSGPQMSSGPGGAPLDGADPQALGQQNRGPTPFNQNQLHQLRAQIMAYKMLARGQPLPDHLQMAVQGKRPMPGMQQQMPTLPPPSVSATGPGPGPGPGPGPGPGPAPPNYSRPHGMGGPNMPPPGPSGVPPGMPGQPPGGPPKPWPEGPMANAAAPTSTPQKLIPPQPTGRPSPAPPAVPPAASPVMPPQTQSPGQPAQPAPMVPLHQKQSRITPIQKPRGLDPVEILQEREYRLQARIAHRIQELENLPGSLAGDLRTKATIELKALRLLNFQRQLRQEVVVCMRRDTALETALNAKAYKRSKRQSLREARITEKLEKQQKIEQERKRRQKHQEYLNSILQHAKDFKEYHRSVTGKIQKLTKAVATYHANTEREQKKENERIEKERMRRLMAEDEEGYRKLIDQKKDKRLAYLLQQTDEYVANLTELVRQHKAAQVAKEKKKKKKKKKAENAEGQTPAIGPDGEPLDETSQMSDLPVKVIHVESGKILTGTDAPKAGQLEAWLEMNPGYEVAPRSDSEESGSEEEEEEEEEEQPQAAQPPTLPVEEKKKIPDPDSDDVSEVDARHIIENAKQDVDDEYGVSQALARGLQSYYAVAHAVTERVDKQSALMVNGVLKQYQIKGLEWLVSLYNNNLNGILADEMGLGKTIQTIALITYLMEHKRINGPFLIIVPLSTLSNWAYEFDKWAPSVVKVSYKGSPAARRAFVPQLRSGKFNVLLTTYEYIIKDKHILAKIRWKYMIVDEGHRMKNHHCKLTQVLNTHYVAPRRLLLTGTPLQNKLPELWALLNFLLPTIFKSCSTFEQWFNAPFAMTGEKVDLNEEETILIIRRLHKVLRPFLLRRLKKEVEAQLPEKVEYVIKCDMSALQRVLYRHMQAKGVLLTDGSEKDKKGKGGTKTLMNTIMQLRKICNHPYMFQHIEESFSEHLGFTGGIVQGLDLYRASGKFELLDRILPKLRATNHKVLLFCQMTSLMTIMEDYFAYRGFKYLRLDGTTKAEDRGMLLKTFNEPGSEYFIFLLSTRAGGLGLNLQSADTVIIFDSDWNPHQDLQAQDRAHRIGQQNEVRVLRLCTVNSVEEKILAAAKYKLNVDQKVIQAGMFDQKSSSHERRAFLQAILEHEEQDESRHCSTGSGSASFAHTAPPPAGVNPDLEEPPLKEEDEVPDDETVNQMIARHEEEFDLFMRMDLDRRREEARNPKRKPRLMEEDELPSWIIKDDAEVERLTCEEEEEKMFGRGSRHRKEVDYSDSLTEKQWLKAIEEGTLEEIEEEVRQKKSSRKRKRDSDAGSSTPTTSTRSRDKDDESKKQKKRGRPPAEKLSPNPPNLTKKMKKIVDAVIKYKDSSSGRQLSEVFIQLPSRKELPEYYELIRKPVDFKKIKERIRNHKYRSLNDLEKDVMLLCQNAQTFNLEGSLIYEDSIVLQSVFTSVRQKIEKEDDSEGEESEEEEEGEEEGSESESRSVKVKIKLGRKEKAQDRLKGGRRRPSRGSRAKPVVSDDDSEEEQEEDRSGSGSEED
T1 sequence (P51531 whole entry): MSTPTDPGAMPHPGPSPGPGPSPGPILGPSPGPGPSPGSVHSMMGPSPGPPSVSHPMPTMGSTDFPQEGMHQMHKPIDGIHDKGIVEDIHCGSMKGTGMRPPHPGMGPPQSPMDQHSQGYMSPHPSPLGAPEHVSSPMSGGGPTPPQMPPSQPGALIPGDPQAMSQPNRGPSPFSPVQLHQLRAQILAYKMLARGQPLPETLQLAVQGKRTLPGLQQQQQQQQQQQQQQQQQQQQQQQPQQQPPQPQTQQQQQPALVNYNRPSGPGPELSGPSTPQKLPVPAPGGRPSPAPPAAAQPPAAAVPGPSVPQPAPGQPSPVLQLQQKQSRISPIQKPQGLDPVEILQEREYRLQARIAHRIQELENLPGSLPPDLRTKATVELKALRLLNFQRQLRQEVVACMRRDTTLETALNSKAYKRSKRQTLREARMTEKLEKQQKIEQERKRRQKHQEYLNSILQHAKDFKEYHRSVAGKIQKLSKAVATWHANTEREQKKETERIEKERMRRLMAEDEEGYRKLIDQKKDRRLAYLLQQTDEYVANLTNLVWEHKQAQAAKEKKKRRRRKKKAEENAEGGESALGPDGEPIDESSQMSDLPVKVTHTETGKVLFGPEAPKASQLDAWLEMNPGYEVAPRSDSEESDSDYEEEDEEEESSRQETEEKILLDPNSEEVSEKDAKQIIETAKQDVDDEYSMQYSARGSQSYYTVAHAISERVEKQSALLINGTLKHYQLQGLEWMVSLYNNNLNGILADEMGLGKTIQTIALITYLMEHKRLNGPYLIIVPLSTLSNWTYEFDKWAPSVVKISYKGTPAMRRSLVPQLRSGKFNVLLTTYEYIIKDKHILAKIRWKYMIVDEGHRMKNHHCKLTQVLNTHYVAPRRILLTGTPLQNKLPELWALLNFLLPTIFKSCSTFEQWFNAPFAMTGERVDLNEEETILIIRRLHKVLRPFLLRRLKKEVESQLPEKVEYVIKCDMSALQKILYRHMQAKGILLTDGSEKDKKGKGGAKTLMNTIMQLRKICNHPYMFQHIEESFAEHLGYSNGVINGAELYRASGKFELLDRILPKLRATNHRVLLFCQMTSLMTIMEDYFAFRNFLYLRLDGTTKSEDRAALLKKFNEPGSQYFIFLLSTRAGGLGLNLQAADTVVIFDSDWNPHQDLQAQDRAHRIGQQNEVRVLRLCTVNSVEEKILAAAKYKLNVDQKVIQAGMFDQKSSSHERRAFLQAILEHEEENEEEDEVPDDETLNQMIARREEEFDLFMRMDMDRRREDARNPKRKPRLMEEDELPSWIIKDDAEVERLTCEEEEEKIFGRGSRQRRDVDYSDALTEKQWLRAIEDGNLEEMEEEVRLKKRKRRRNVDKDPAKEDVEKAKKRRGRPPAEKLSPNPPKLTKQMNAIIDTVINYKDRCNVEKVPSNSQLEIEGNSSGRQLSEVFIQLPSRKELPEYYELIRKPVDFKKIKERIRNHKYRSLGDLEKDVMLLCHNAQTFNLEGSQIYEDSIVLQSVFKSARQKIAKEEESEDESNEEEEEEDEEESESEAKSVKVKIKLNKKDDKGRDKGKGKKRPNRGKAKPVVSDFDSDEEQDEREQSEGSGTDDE

Structure (SMILES)	IC50 (BRM; [1])	Ratio* (BRM; ratio of BRG1 IC50 to BRM IC50)	IC50 (BRG-1; [1])	IC50 (BRM; ADP-Glo ATPase assay)	Ratio* (BRM; ratio BRG1 IC50 / BRM IC50)	IC50 (BRG-1; ADP-Glo ATPase assay)	Ratio* (BRG1 IC50 (μM) divided by BRM IC50 (μM)) (BRM)
CN(CCOC1CC1)c1cccc(-c2ccc3cnc(CNC(=O)c4ccc5c(c4)S(=O)(=O)CCOC5)cc3n2)n1 [Compound 361]	7.4 nM	19.62	145 nM	–	–	–	–
O=C(NCc1cc2nc(-c3cccc(N(CC4COC4)C4CC4)n3)ccc2cn1)c1ccc2c(c1)S(=O)(=O)CCOC2 [Compound 428]	50.3 nM	6.45	324 nM	–	–	–	–
COc1cc(C(C)(F)F)ccc1-c1ccc2cnc(CNC(=O)c3ccc4c(c3)S(=O)(=O)CCOC4)cc2n1 [Compound 419]	24.5 nM	15.63	384 nM	–	–	–	–
O=C(NCc1cc2cc(-c3cccc(N4CCC4)n3)ccc2cn1)c1ccc2c(c1)S(=O)(=O)CCOC2 [Compound 271]	–	–	–	16.1 nM	–	204 nM	12.70
Cn1nccc1-c1cccc(-c2ccc3cnc(CNC(=O)c4ccc5c(c4)S(=O)(=O)CCOC5)cc3n2)c1 [Compound 235]	–	–	–	154 nM	–	1130 nM	7.32
COC1CCN(c2ccc3cnc(CNC(=O)c4ccc5c(c4)S(=O)(=O)CCOC5)cc3n2)c2ncccc21 (stereo not drawn) [Compound 496]	157 nM	15.21	2390 nM	–	–	–	–
C[C@H]1CN(c2cccc(-c3ccc4cnc(CNC(=O)c5ccc(Cl)c(S(C)(=O)=O)c5)cc4n3)n2)C[C@H](C)O1 [Compound 179]	–	–	–	33.3 nM	–	383 nM	11.49
COc1cc(CC(F)F)ccc1-c1ccc2cnc(CNC(=O)c3ccc4c(c3)S(=O)(=O)CCOC4)cc2n1 [Compound 316]	47.1 nM	10.49	495 nM	–	–	–	–
O=C(NCc1cc2nc(-c3cccc(OCC4CC(F)(F)C4)n3)ccc2cn1)c1ccc2c(c1)S(=O)(=O)CCOC2 [Compound 390]	60.7 nM	17.24	1050 nM	–	–	–	–
C[C@@H]1CN(c2cccc(-c3ccc4cnc(CNC(=O)c5ccc6c(c5)S(=O)(=O)CCO[C@@H]6C5CC5)cc4n3)n2)C[C@H](C)O1 [Compound 454]	25.2 nM	8.46	213 nM	–	–	–	–
CCOc1nc(-c2ccc3cnc(CNC(=O)c4ccc5c(c4)S(=O)(=O)CCOC5)cc3n2)ccc1Cl [Compound 493]	179 nM	5.15	921 nM	–	–	–	–
COCCn1ccc2c(-c3ccc4cnc(CNC(=O)c5ccc6c(c5)S(=O)(=O)CCOC6)cc4n3)ccnc21 [Compound 336]	6.6 nM	16.08	107 nM	–	–	–	–
C[C@@H]1CN(c2cncc(-c3ccc4cnc(CNC(=O)c5ccc(Cl)c(S(C)(=O)=O)c5)cc4n3)n2)C[C@H](C)O1 [Compound 182]	–	–	–	44.5 nM	–	422 nM	9.47
COC(C)(C)CN(C)c1cccc(-c2ccc3cnc(CNC(=O)c4ccc5c(c4)S(=O)(=O)CCOC5)cc3n2)n1 [Compound 44]	–	–	–	90.5 nM	–	694 nM	7.67
C[C@@H]1CN(c2cccc(-c3ccc4cnc(CNC(=O)c5ccc6c(c5)S(=O)(=O)CC[C@H](C)O6)cc4n3)n2)C[C@H](C)O1 [Compound 418]	13.6 nM	14.19	193 nM	–	–	–	–
CS(=O)(=O)c1cc(C(=O)NCc2cc3nc(-c4cncc(C5CC5)n4)ccc3cn2)ccc1Cl [Compound 294]	–	–	–	156 nM	–	2710 nM	17.37
C[C@@H]1CN(c2cccc(-c3ccc4cnc(CNC(=O)c5cc(F)c6c(c5)S(=O)(=O)CC[C@H](C)O6)cc4n3)n2)C[C@H](C)O1 [Compound 495]	63.1 nM	15.54	981 nM	–	–	–	–
CC1CS(=O)(=O)c2cc(C(=O)NCc3cc4nc(-c5cccc(N6C[C@@H](C)O[C@@H](C)C6)n5)ccc4cn3)ccc2CO1 (stereo partly drawn) [Compound 48]	–	–	–	294 nM	–	1840 nM	6.26
O=C(NCc1cc2cc(-c3cccc(N4CCC4)n3)ccc2cn1)c1cc(F)c2c(c1)S(=O)(=O)CCOC2 [Compound 268]	–	–	–	16.3 nM	–	343 nM	21.00
O=C(NCc1cc2nc(-c3cncc(C(F)(F)F)n3)ccc2cn1)c1ccc2c(c1)S(=O)(=O)CCOC2 [Compound 209]	–	–	–	498 nM	–	3620 nM	7.27
C[C@@H]1CN(c2cccc(-c3ccc4cnc(CNC(=O)c5ccc6c(c5)S(=O)(=O)CC[C@@H](C5CC5)O6)cc4n3)n2)C[C@H](C)O1 [Compound 433]	331 nM	13.59	4500 nM	–	–	–	–
CO[C@@H]1CCN(c2cccc(-c3ccc4cnc(CNC(=O)c5ccc6c(c5)S(=O)(=O)CCOC6)cc4n3)n2)C[C@@H]1C [Compound 438]	31.8 nM	11.23	357 nM	–	–	–	–

Other lines, results leading:

IC50 (BRM; [1])	Ratio* (BRM; ratio of BRG1 IC50 to BRM IC50)	IC50 (BRG-1; [1])	IC50 (BRM; ADP-Glo ATPase assay)	Ratio* (BRM; ratio BRG1 IC50 / BRM IC50)	IC50 (BRG-1; ADP-Glo ATPase assay)	Ratio* (BRG1 IC50 (μM) divided by BRM IC50 (μM)) (BRM)	Structure (SMILES)
–	–	–	406 nM	11.26	4570 nM	–	O=C(NCc1cc2nc(N3CCOc4nc(C(F)F)ccc43)ccc2cn1)c1ccc2c(c1)S(=O)(=O)CCOC2 [Compound 846]
7.9 nM	5.56	43.8 nM	–	–	–	–	CCOc1ccnc2c1CCCN2c1ccc2cnc(CNC(=O)c3ccc4c(c3)S(=O)(=O)CCOC4)cc2n1 [Compound 573]
193 nM	24.47	4720 nM	–	–	–	–	O=C(NCc1cc2nc(N3CCOc4cc(Cl)c(C5CC5)nc43)ccc2cn1)c1ccc2c(c1)S(=O)(=O)CCOC2 [Compound 698]
32.8 nM	16.28	534 nM	–	–	–	–	CC1CN(c2cccc(-c3ccc4cnc(CNC(=O)c5ccc6c(c5)S(=O)(=O)C(C)CN6C)cc4n3)n2)CC(C)O1 (stereo not drawn) [Compound 567]
–	–	–	6.4 nM	7.26	46.7 nM	–	CN(c1cnc2c(c1)OCCN2c1ccc2cnc(CNC(=O)c3ccc4c(c3)S(=O)(=O)CCOC4)cc2n1)C1CCC1 [Compound 819]
–	–	–	79.7 nM	12.03	959 nM	–	COCc1cc2c(cn1)N(c1ccc3cnc(CNC(=O)c4ccc5c(c4)S(=O)(=O)CCOC5)cc3n1)CCC2 [Compound 821]
–	–	–	5 nM	9.39	46.9 nM	–	CO[C@@H](C)COc1ccc2c(c1)N(c1ccc3cnc(CNC(=O)c4ccc5c(c4)S(=O)(=O)CCOC5)cc3n1)CCC2 [Compound 706]
20.3 nM	19.65	399 nM	–	–	–	–	Cc1ccc2c(c1)OCCN2c1ccc2cnc(CNC(=O)c3ccc4c(c3)S(=O)(=O)CCCO4)cc2n1 [Compound 551]
5.7 nM	10.00	56.9 nM	–	–	–	–	O=C(NCc1cc2nc(-c3cccc(N4CC(C5COC5)C4)n3)ccc2cn1)c1ccc2c(c1)S(=O)(=O)CCOC2 [Compound 604]
–	–	–	36.2 nM	63.48	2300 nM	–	O=C(NCc1cc2nc(N3CCOc4cc(F)c(C5CC5)nc43)ccc2cn1)c1ccc2c(c1)S(=O)(=O)CCOC2 [Compound 751]
329 nM	2.54	835 nM	–	–	–	–	CN1C(=O)CN(c2ccc3cnc(CNC(=O)c4ccc5c(c4)S(=O)(=O)CCOC5)cc3n2)c2ccccc21 [Compound 511]
4.6 nM	5.44	25 nM	–	–	–	–	O=C(NCc1cc2nc(N3CCCc4c(OC5COC5)cccc43)ccc2cn1)c1ccc2c(c1)S(=O)(=O)CCOC2 [Compound 555]
8 nM	14.99	120 nM	–	–	–	–	C[C@@H]1CN(c2cccc(-c3ccc4cnc(CNC(=O)c5ccc6c(c5)S(=O)(=O)[C@H](C)C6)cc4n3)n2)C[C@H](C)O1 [Compound 502]
–	–	–	44.6 nM	42.98	1920 nM	–	O=C(NCc1cc2cc(N3CCOc4ccc(C5CC5)nc43)ccc2cn1)c1ccc2c(c1)S(=O)(=O)CCOC2 [Compound 729]
–	–	–	61.3 nM	17.84	1090 nM	–	O=C(NCc1cc2nc(N3CCCc4ccc(C(F)CF)nc43)ccc2cn1)c1ccc2c(c1)S(=O)(=O)CCOC2 (stereo not drawn) [Compound 823]
15.8 nM	9.98	158 nM	–	–	–	–	COc1cc2c(nc1C)N(c1ccc3cnc(CNC(=O)c4ccc5c(c4)S(=O)(=O)CCOC5)cc3n1)CCC2 [Compound 602]
25.9 nM	15.92	411 nM	–	–	–	–	CCOc1nc(-c2ccc3cnc(CNC(=O)c4ccc5c(c4)S(=O)(=O)[C@@H](C)COC5)cc3n2)ccc1F [Compound 497]
–	–	–	122 nM	33.67	4110 nM	–	O=C(NCc1cc2nc(N3CCOc4ccc(C5(F)CC5(F)F)nc43)ccc2cn1)c1ccc2c(c1)S(=O)(=O)CCOC2 (stereo not drawn) [Compound 795]
–	–	–	33 nM	4.95	163 nM	–	CN(C)c1ccnc2c1CCCN2c1ccc2cnc(CNC(=O)c3ccc4c(c3)S(=O)(=O)CCOC4)cc2n1 [Compound 837]
28.9 nM	14.25	412 nM	–	–	–	–	O=C(NCc1cc2nc(N3CCCc4cc(Cl)cnc43)ccc2cn1)c1ccc2c(c1)S(=O)(=O)CCOC2 [Compound 588]
16.9 nM	9.70	164 nM	–	–	–	–	O=C(NCc1cc2nc(N3CCCc4ccc(Cl)nc43)ccc2cn1)c1ccc2c(c1)S(=O)(=O)CCOC2 [Compound 513]
–	–	–	16.4 nM	49.65	814 nM	–	O=C(NCc1cc2nc(N3CCCc4ccc(C5CCC5)nc43)ccc2cn1)c1ccc2c(c1)S(=O)(=O)CCOC2 [Compound 730]
